# Measured values taken from US10214779B2, “Method for identification of anti-HIV human miRNA mimics and miRNA inhibitors and anti-HIV pharmaceutical compounds” (CSIR, priority 2013, dated 2019).
# Structures can show the parent of a compound that is named as a salt. *1 amine or outer side, *2 acyl side, *3 side chain or, on linkers, in order; H or OH if unused. Where a SMILES comes first, the peptide text is derived from it. Bridges are numbered along the chain shown (N, C = ends). Roman numbers before positions name the chains, in order. [ ]: non-standard residue; d: D form. Actinocin(9to1) = Cc1c2oc3c(C)ccc(C(=O)[*:1])c3nc-2c(C(=O)[*:2])c(N)c1=O; NMeV = CN[C@H](C(=O)O)C(C)C; Sar = CNCC(=O)O
# Assays:
# [1] = test system: HIV (Subtype B pseudoviral strain, PSGIII) in GHOST(3) cells; assay: Targeted drug screen, Clearance Screen (drug after HIV infection) in GHOST(3) cells; format: cell-based, HIV-1; settings: infection MOI 0.5 for 48 hour, then drug 24 h, screened at 100 nM, 1 uM and 10 uM
# Experimental: A library of 101 Food and Drug Administration (FDA) approved oncology drugs as well as a library of 192 kinase-inhibitor compounds were screened as potential anti-HIV therapeutics using the GHOST(3) reporter cell line. Drugs were screened at 3 different concentrations of 100 nM, 1 uM and 10 uM. Each library was screened in triplicate at each drug concentration and in the following 3 formats:
# This screen format was utilised to identify drugs/compounds that were able to suppress HIV replication in host cells already infected by HIV or drugs/compounds that were able to selectively target HIV-infected cells for apoptosis. GHOST(3) cells were seeded in the wells of a 96 well plate 24 hour prior to infection with the Subtype B pseudoviral strain, PSGIII, at an MOI of 0.5. The infective media was then removed 48 hour post infection and replaced with normal culture media supplemented with a drug/compound at the appropriate concentration. Twenty-four hours post drug treatment, cells were processed for imaging as previously described.
# This screen format was used as a control to identify drugs that were broadly cytotoxic. […] GHOST(3) cells were seeded in 96 well plates, 24 hr post seeding, drugs were added to culture medium at the required final concentration. Twenty-four hours post drug treatment cells were processed for imaging as described previously.
# Subtype B viral stocks were produced by the dual transfection of HEK293T cells with a PSGIII (Subtype B) viral backbone plasmid which lacks an envelope/packaging protein and a second plasmid expressing an HIV-BAL viral envelope protein (Subtype B). Plasmid transfections were conducted using the FuGene 6 lipid-based transfection reagent (Promega) as per the manufacturer's guidelines. Viral titres were determined using a luciferase readout-assay based on the JC53 cell line and the TCID50 calculation method described by Reed and Muench (1938). GHOST(3) cells were exposed to virions at an MOI of 0.5 for both the miRNA and targeted drug/compound screens. Cells were infected in SFM supplemented with 1× Glutamax (Infecting media) as FBS has previously been described to negatively impact the infection efficiency of HIV.
# Cells were washed twice in 1×PBS before fixation with a 3.7% Formaldehyde solution for 30 minutes at room temperature. Cells were washed once with 1× PBS before the addition of Hoechst Nuclear stain (Invitrogen) at 2 uM final concentration in 1×PBS for 30 minutes at room temperature. The Hoechst staining solution was aspirated and replaced with 50 uL of 1×PBS solution before imaging.
# Four fields of view (100 um apart) were acquired from the central region of each well imaged. Images were acquired in the 405 and 488 fluorescent channels for each field of view. Wells were imaged using the 20× ewld objective on the Image Xpress Ultra automated confocal microscope system (Molecular Devices). The imaging parameters were kept constant for all replicates of both miRNA and targeted drug/compound screens.
# Feature extraction algorithms were utilized in order to extract 16 subcellular measurements from the acquired images. These 16 factors are derived from 15 descriptors previously described by Genovesio et al. 2011 to be relevant indicators of the infective state of host cells, with addition of ‘infection efficiency’ as a descriptor of the percentage of infected cells per treatment well.
# A bespoke support vector machine-learning (SVML) pattern recognition algorithm was trained to identify phenotypes of interest using the relevant control wells. […] The transfection of siCD4 and Raltegravir treatment were thus utilised in the miRNA and drug/compound screens respectively as positive controls for the inhibition of HIV-1 replication. […]
# [2] = test system: HIV (Subtype B pseudoviral strain, PSGIII) in GHOST(3) cells; assay: Targeted drug screen, Phenocopy Screen (drug before HIV infection) in GHOST(3) cells; settings: for Effect (Phenocopy Screen): drug 24 h before infection, MOI 0.5, 48 hour, screened at 100 nM, 1 uM and 10 uM, GHOST(3) cells
# Experimental: GHOST(3) cells were seeded in the wells of a 96 well plate 24 hour prior to addition of a specific oncology drug at the appropriate concentration. Twenty-four hours post drug treatment, the drug supplemented media was removed and replaced with infective media containing the Subtype B pseudoviral strain, PSGIII. Cells were infected at an MOI of 0.5. The infective media was removed 48 hour post infection and cells were processed for imaging as previously described (See Sample Preparation).
# Four fields of view (100 um apart) were acquired from the central region of each well imaged. […] Wells were imaged using the 20× ewld objective on the Image Xpress Ultra automated confocal microscope system (Molecular Devices). The imaging parameters were kept constant for all replicates of both miRNA and targeted drug/compound screens.
# Aurora A = molecular target: T1, Aurora A (Homo sapiens, UniProt O14965); settings: cited from earlier work
# T1 sequence (O14965 1-403): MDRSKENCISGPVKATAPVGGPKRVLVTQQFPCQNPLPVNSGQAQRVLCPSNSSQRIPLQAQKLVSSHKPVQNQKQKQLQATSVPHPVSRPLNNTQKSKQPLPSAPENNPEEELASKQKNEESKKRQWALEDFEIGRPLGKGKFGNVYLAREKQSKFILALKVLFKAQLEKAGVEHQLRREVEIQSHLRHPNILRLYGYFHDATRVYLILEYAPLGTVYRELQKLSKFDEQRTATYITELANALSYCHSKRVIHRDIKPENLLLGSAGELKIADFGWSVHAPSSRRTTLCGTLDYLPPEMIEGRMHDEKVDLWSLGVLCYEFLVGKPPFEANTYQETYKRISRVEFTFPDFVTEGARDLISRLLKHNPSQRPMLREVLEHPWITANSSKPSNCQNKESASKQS
# Aurora B = Aurora B (Homo sapiens, UniProt Q96GD4); settings: cited from earlier work
# Aurora B, sequence (Q96GD4 whole entry): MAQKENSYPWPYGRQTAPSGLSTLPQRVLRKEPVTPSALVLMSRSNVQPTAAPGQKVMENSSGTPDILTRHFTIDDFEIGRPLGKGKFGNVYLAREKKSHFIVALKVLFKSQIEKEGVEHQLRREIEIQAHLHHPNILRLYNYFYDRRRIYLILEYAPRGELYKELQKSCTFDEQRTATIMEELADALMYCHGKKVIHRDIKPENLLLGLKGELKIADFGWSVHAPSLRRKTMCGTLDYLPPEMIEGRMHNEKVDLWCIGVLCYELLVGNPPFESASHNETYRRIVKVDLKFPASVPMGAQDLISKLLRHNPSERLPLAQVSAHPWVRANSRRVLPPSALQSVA
# p110γ = p110γ (Homo sapiens, UniProt P48736); settings: cited from earlier work
# p110γ, sequence (P48736 whole entry, species assumed): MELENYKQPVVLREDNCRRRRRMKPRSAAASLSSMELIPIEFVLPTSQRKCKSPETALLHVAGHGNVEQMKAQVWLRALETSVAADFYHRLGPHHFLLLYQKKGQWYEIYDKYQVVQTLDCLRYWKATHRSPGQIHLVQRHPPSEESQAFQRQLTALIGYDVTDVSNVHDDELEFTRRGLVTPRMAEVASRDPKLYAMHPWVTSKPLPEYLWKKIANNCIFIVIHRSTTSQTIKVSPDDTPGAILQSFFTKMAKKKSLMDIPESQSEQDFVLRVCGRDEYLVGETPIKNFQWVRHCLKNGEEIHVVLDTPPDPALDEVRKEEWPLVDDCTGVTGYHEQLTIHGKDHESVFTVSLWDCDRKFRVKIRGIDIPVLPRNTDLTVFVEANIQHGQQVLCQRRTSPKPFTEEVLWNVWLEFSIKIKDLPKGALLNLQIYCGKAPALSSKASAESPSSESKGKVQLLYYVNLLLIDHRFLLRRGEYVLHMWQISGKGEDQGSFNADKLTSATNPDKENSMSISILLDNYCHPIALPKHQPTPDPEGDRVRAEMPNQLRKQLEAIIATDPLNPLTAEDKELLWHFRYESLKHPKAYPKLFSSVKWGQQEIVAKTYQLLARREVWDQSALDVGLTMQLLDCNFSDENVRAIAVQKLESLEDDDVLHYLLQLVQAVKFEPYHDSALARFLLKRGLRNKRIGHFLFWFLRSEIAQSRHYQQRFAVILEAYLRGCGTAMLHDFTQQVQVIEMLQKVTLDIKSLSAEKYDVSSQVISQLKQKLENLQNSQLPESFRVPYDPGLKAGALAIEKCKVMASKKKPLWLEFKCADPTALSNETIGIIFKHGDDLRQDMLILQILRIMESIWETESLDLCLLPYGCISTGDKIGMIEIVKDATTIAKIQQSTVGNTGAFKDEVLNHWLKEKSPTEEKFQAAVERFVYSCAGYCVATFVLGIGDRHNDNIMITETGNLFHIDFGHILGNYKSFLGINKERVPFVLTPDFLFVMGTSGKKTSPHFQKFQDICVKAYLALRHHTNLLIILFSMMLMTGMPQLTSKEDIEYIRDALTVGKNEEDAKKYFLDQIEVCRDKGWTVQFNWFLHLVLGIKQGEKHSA
smiles,measurement,setting,value
Cc1[nH]nc2ccc(-c3cncc(OC[C@@H](N)Cc4ccccc4)c3)cc12 [A-674563],Effect (Clearance Screen),[1],Suppressed HIV^b
O=C(NC1CCNCC1)c1[nH]ncc1NC(=O)c1c(Cl)cccc1Cl [AT7519],Effect (Phenocopy Screen),[2],Toxic in response
CCN1CCN(C(=O)Cc2ccc(Nc3ncc(F)c(Nc4ccc(C(=O)Nc5ccccc5Cl)cc4)n3)cc2)CC1 [Aurora A inhibitor I],Effect (Phenocopy Screen),[2],Toxic in response
same,IC50,Aurora A; Aurora A,3.4 nM
same,B/A ratio,Aurora A; Aurora B / Aurora A selectivity,1000
same,IC50,Aurora B,3.4 µM
COC(=O)c1ccc2c(c1)NC(=O)/C2=C(\Nc1ccc(N(C)C(=O)CN2CCN(C)CC2)cc1)c1ccccc1 [BIBF1120 (Vargatef)],Effect (Phenocopy Screen),[2],Suppressed HIV^a
N.N.[Cl][Pt][Cl] [Cisplatin],Effect (Clearance Screen),[1],Suppressed HIV^b
"CC1(COc2ccc3c(c2)ncn3-c2ccc3cccc(N4CCC(N)CC4)c3n2)COC1 [Crenolanib (CP-868596), Crenolanib]",Effect (Phenocopy Screen),[2],Toxic in response
"Cc1c2oc3c(C)ccc(C(=O)N[C@@H]4C(=O)N[C@H](C(C)C)C(=O)N5CCC[C@H]5C(=O)N(C)CC(=O)N(C)[C@@H](C(C)C)C(=O)O[C@@H]4C)c3nc-2c(C(=O)N[C@@H]2C(=O)N[C@H](C(C)C)C(=O)N3CCC[C@H]3C(=O)N(C)CC(=O)N(C)[C@@H](C(C)C)C(=O)O[C@@H]2C)c(N)c1=O [Dactinomycin] (I: T[dV]P[Sar][NMeV] / II: T[dV]P[Sar][NMeV]; ester I:1-I:C, II:1-II:C; linker I:N-II:N via Actinocin(9to1))",Effect (Clearance Screen),[1],Suppressed HIV^b
C[C@@H](CN1CC(=O)NC(=O)C1)N1CC(=O)NC(=O)C1 [Dexrazoxane],Effect (Clearance Screen),[1],Suppressed HIV^b
C#Cc1cccc(Nc2ncnc3cc(OCCOC)c(OCCOC)cc23)c1 [Erlotinib hydrochloride],Effect (Phenocopy Screen),[2],Toxic in response
CO[C@H]1C[C@@H]2CC[C@@H](C)[C@@](O)(O2)C(=O)C(=O)N2CCCC[C@H]2C(=O)O[C@H]([C@H](C)C[C@@H]2CC[C@@H](OCCO)[C@H](OC)C2)CC(=O)[C@H](C)/C=C(\C)[C@@H](O)[C@@H](OC)C(=O)[C@H](C)C[C@H](C)/C=C/C=C/C=C/1C [Everolimus],Effect (Clearance Screen),[1],Suppressed HIV^b
O=c1[nH]c(=O)n([C@H]2C[C@H](O)[C@@H](CO)O2)cc1F [Floxuridine],Effect (Phenocopy Screen),[2],Toxic in response
COc1cc2c(Oc3ccc(NC(=O)C4(C(=O)Nc5ccc(F)cc5)CC4)cc3F)ccnc2cc1OCCCN1CCOCC1 [Foretinib],Effect (Phenocopy Screen),[2],Suppressed HIV^a
COc1ncc(-c2ccc3nccc(-c4ccnnc4)c3c2)cc1NS(=O)(=O)c1ccc(F)cc1F [GSK2126458],Effect (Phenocopy Screen),[2],Suppressed HIV^a
COc1cc2ncnc(Nc3ccc(F)c(Cl)c3)c2cc1OCCCN1CCOCC1 [Gefitinib],Effect (Phenocopy Screen),[2],Toxic in response
O=P1(NCCCl)OCCCN1CCCl (centres unmarked) [Ifosfamide],Effect (Clearance Screen),[1],Suppressed HIV^b
c1ccc2c(-c3cnn4cc(-c5ccc(N6CCNCC6)cc5)cnc34)ccnc2c1 [LDN193189],Effect (Phenocopy Screen),[2],Toxic in response
Cc1ccc(C(=O)Nc2cccc(C(F)(F)F)c2)cc1Nc1nc(-c2cccnc2)nc2c1cnn2C [NVP-BHG712],Effect (Phenocopy Screen),[2],Suppressed HIV^a
Cc1ccc([N+](=O)[O-])cc1S(=O)(=O)N(C)/N=C/c1cnc2ccc(Br)cn12 [PIK-75],Effect (Phenocopy Screen),[2],Toxic in response
same,IC50,p110γ,76 nM
Cc1ccc(C(=O)Nc2ccc(CN3CCN(C)CC3)c(C(F)(F)F)c2)cc1C#Cc1cnc2cccnn12 [Ponatinib],Effect (Phenocopy Screen),[2],Suppressed HIV^a
Cc1nnc(C(=O)NC(C)(C)c2nc(C(=O)NCc3ccc(F)cc3)c(O)c(=O)n2C)o1 [Raltegravir],HIV replication (positive control phenotype),"[2]; 10 uM, added 24 hour prior to exposure to HIV",suppressed HIV replication
CC(C)(C)c1cnc(CSc2cnc(NC(=O)C3CCNCC3)s2)o1 [SNS-032 (BMS-387032)],Effect (Phenocopy Screen),[2],Toxic in response
CN1CCN(CCOc2cc(OC3CCOCC3)c3c(Nc4c(Cl)ccc5c4OCO5)ncnc3c2)CC1 [Saracatinib],Effect (Phenocopy Screen),[2],Suppressed HIV^a
Cn1nnc2c(C(N)=O)ncn2c1=O [Temozolomide],Effect (Phenocopy Screen),[2],Suppressed HIV^a
O=C1CCC(N2C(=O)c3ccccc3C2=O)C(=O)N1 (centres unmarked) [Thalidomide],Effect (Phenocopy Screen),[2],Suppressed HIV^a
CCCS(=O)(=O)Nc1ccc(F)c(C(=O)c2c[nH]c3ncc(-c4ccc(Cl)cc4)cc23)c1F [Vemurafenib],Effect (Clearance Screen),[1],Suppressed HIV^b
CC[C@]1(O)C[C@H]2CN(CCc3c([nH]c4ccccc34)[C@@](C(=O)OC)(c3cc4c(cc3OC)N(C=O)[C@H]3[C@@](O)(C(=O)OC)[C@H](OC(C)=O)[C@]5(CC)C=CCN6CC[C@]43[C@@H]65)C2)C1 [Vincristine sulfate],Effect (Phenocopy Screen),[2],Suppressed HIV^a
O=C(CCCCCCC(=O)Nc1ccccc1)NO [Vorinostat],Effect (Phenocopy Screen),[2],Toxic in response
C=CC(=O)Nc1cccc(Oc2nc(Nc3ccc(N4CCN(C)CC4)cc3OC)ncc2Cl)c1 [WZ4002],Effect (Phenocopy Screen),[2],Suppressed HIV^a
